From patent US5068244A, “Benzocyclohexanes and analgesic compositions thereof” (Roussel Uclaf, priority 1988, dated 1991)
pIC50: −log10 of the molar value.

Biological target: T1, opiate receptor K (Cavia porcellus, UniProt P41144)
T1 construct: Membranous sediment preserved at -30° C; and prepared from guinea pig cerbelli were used; from tissue; host or cells: guinea pig cerebellum membranes
Assay: Binding of the opiate receptor K in vitro (displacement of 3H ethylketocyclazocine)
Conditions: guinea pig cerebellum membranes, 3H ethylketocyclazocine 1 nM, Tris pH 7.7, 25° C., 40 minutes; read-out: CI50 (the source's name)
Description: Membranous sediment preserved at -30° C. (possibly for 30 days) and prepared from guinea pig cerbelli were used. The sediments were put in suspension in the buffer Tris pH 7.7. Fractions of 2 ml were distributed in hemolysis tubes and ^3 H ethylketocyclazocine 1 nM and the product to be studied were added. The following were determined: the maximum quantity of fixed radioactivity in the presence of ^3 H ethylketocyclazocine alone, the quantity of radioactivity bonded in a non-specific manner in the presence of the tritiated ligand and of an excess (10^-5 M) of the reference product known under the name of U-50488 H and the displacement of specific bonding produced by a dose of 5×10^-5 M of the product to be tested.
These tests were carried out in triplicate and aliquotes of 2 ml were incubated at 25° C. for 40 minutes. After returning to 0° C. for 5 minutes at the end of the incubation, they were filtered with Whatman GF/C filters, rinsed in Tris buffer pH 7.7 and the radioactivity was counted in the presence of scintillating Triton. When the product to be tested displaced the specifically fixed radioactivity by more than 50%, the 50% inhibiting concentration (CI50) was determined by a 7 dose scale. The results of the 50% inhibiting concentration were then expressed in nM. The CI50 was therefore the concentration of the product studied, expressed in nM, necessary to displace 50% of the specifically fixed radioactivity on the receptor studied (LAHTI et al, 1982, Life Sci., Vol. 31, 2257) The results are as follows: […]

T1 sequence (P41144 whole entry): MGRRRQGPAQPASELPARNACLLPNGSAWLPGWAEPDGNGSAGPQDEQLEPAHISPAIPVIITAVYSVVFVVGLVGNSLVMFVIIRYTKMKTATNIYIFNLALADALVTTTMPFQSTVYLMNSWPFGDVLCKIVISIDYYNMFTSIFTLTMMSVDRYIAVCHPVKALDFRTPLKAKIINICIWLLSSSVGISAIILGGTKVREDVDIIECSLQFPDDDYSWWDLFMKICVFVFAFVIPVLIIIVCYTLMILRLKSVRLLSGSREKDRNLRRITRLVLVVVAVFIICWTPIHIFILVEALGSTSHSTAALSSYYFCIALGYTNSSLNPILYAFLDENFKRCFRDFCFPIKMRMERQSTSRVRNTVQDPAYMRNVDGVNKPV

Row | SMILES | pIC50
1 | CN(C(=O)Cc1ccc([N+](=O)[O-])cc1)[C@H]1c2ccccc2CC[C@@H]1N1CCCC1 (relative stereo) [Example 2, Trans (±) N-methyl-4-nitro-N-[2-(1-pyrrolidinyl)-1,2,3,4-tetrahydro-1-naphthyl]-benzene acetamide] | 7.92
2 | CN(C(=O)Cc1cccc2ccccc12)[C@H]1c2ccccc2CC[C@@H]1N1CCCC1 (relative stereo) [Example 3, Trans (±) N-methyl-N-[2-(1-pyrrolidinyl)-1,2,3,4-tetrahydro-1-naphthyl]-1-naphthalene acetamide] | 7.96
3 | CN(C(=O)Cc1cccc2sccc12)[C@H]1c2ccccc2CC[C@@H]1N1CCCC1 (relative stereo) [Example 20, Trans (±) N-methyl-N-[2-(1-pyrrolidinyl)-1,2,3,4-tetrahydro-1-naphthyl]-4-benzo-[b]-thiophene acetamide] | 8.48
